According to US20260124122A1, “QUATERNARY AMMONIUM SILANE AQUEOUS HYDROGEL FORMULATIONS” (priority 2023, published 2026):

Legend:
Format in all cases: physicochemical
[1] = Hydrolysis of quaternary ammonium silane, Direct Infusion Mass Spectrometry, ESI+ mode
Procedure: In this example, hydrolysis of Compound VII was evaluated in the mass-spectrometry study (Direct Infusion Mass Spectrometry, ESI+ mode).
In a first experiment, Compound VII was dissolved in propylene glycol and diluted with acetonitrile to a final concentration of 10 μg/mL in the sample. […] Two minor peaks with m/z of 592 (Compound VII) and m/z of 534 (mono-hydrolyzed species of Compound VII) are present at low abundance. […] Exposure time during the HPLC-mass spec analysis is less than 45 seconds, further confirming the rapid hydrolysis of the quaternary ammonium silane upon exposure to water.
In a second experiment, Compound VII was diluted in water to a final concentration of 10 μg/mL in the sample. The mass spectrum of the sample was recorded at a 30-minute time point and is shown FIG. 3. Compound VII was completely hydrolyzed within the 30-minute time frame according to the following reaction scheme:
0.50% of Compound VII was formulated with 2% propylene glycol, 1% HPMC, 0.1% poloxamer 407, 2% PEG, and 94.40% water.

[2] = Dissolution in water and stability of the aqueous solution of the isolated product; conditions: for dissolution of the product in water: isolated product
[3] = Precipitation on addition to hydrogels containing ionic or non-ionic, carboxylic acid group containing ingredients; conditions: zinc gluconate, sorbitol, glycerin
Procedure: (§1) 160 mls of distilled water was added to a 250 mL screw-top media bottle. 4 g of Xanthan gum was added slowly under vigorous stirring. The mixture was stirred overnight and the Xanthan gum was fully dissolved, with the mixture homogenous and clear. Zinc gluconate (0.2 g), sorbitol (10 g), glycerin (4 g), and Poloxamer 407 (0.4 g) were added to the mixture and stirred until homogenous and clear. […] At this point the process was stopped.
as §1, with “bottle. 0.2” for “bottle. 4”, “of carbomer copolymer A” for “of Xanthan gum”, “the carbomer copolymer A” for “the Xanthan gum”
as §1, with “bottle. 0.2” for “bottle. 4”, “of carbomer copolymer B” for “of Xanthan gum”, “the carbomer copolymer B” for “the Xanthan gum”
as §1, with “bottle. 0.2” for “bottle. 4”, “of carrageenan” for “of Xanthan gum”, “the carrageenan” for “the Xanthan gum”
as §1, with “bottle. 0.2” for “bottle. 4”, “of carboxymethylcellulose Sodium” for “of Xanthan gum”, “the Carboxymethylcellulose Sodium” for “the Xanthan gum”
as §1, with “bottle. 0.2” for “bottle. 4”, “of Sodium Alginate” for “of Xanthan gum”, “the Sodium Alginate” for “the Xanthan gum”
as §1, with “of HPMC having a viscosity 2600-5600 in H2O (20° C.)” for “of Xanthan gum”, “the HPMC” for “the Xanthan gum”, “and sodium hyaluronate” for “and Poloxamer 407”

In the case of CCCCCCCCCCCCCCCCCC[N+](C)(C)CCC[Si](OCC(C)O)(OCC(C)O)OCC(C)O.CS(=O)(=O)[O-] (stereo not shown) [Compound VII, N,N-dimethyl-N-(3-(tris(2-hydroxypropoxy)silyl)propyl)octadecan-1-aminium methane sulfonate], the extent of hydrolysis ([1]; 0.50% formulated with 2% propylene glycol, 1% HPMC, 0.1% poloxamer 407, 2% PEG, 94.40% water) is reported as “complete hydrolysis”, the “time frame of complete hydrolysis” value ([1]; diluted in water, 10 μg/mL) is reported as no more than 30 min and the extent of hydrolysis ([1]; diluted in water, 30-minute time point) is reported as “complete hydrolysis”. The extent of hydrolysis ([1]; in propylene glycol diluted with acetonitrile, 10 μg/mL, 0.1% aqueous formic acid mobile phase, exposure less than 45 seconds) was “Partial hydrolysis”.
For CCCCCCCCCCCCCCCCCC[N+](C)(C)CCC[Si](OCC(CO)(CO)NCCS(=O)(=O)[O-])(OCC(CO)(CO)NCCS(=O)(=O)O)OCC(CO)(CO)NCCS(=O)(=O)O [Compound XIX, 2-[[1-[[3-[Dimethyl(octadecyl)ammonio]propyl-[3-hydroxy-2-(hydroxymethyl)-2-(2-sulfoethylamino)propoxy]-[3-hydroxy-2-(hydroxymethyl)-2-(2-sulfoethylamino)propoxy]silyl]oxymethyl]-2-hydroxy-1-(hydroxymethyl)ethyl]amino]-ethanesulfonate], the “time a solution in water remains clear” value ([2]; 1% solution in water) was greater than 5 months, the “dissolution of the fine powder in water” value ([2]; water, gentle heating) was “dissolves quickly in water with gentle heating” and the “precipitation on addition to the mixture” value ([3]; HPMC with sodium hyaluronate) was “immediate precipitation”. The “precipitation on addition to the mixture” value ([3]; Sodium Alginate as gelling agent, Poloxamer 407) was “immediate precipitation”, the “precipitation on addition to the mixture” value ([3]; Xanthan gum as gelling agent, Poloxamer 407) was “immediate precipitation” and the “precipitation on addition to the mixture” value ([3]; carbomer copolymer A as gelling agent, Poloxamer 407) was “immediate precipitation”. For the same compound, the “precipitation on addition to the mixture” value ([3]; carbomer copolymer B as gelling agent, Poloxamer 407) was “immediate precipitation”, the “precipitation on addition to the mixture” value ([3]; carboxymethylcellulose Sodium as gelling agent, Poloxamer 407) was “immediate precipitation” and the “precipitation on addition to the mixture” value ([3]; carrageenan as gelling agent, Poloxamer 407) was “immediate precipitation”.
In the case of CCCCCCCCCCCCCCCCCC[N+](C)(C)CCC[Si](OCC(C)O)(OCC(C)O)OCC(C)O (stereo not shown) [Example 1, Dimethyl-octadecyl-[3-[tris(2-hydroxypropoxy)silyl]propyl]ammonium chloride], the “dissolution of the product in water” value ([2]; water) is reported as “dissolved readily in water”.
In the case of CCCCCCCCCCCCCCCCCC[N+](C)(C)CCC[Si](OCC(C)(CO)C(=O)O)(OCC(C)(CO)C(=O)O)OCC(C)(CO)C(=O)O (stereo not shown) [Example 4, Dimethyl-octadecyl-[3-tris(2-carboxy-3-hydroxy-2-methyl-propoxy)silylpropyl]ammonium chloride], the “dissolution of the product in water” value ([2]; water) is reported as “dissolved readily in water”.
For CCCCCCCCCCCCCCCCCC[N+](C)(C)CCC[Si](OCCCO)(OCCCO)OCCCO [Example 5, Dimethyl-octadecyl-[3-[tris(3-hydroxypropoxy)silyl]propyl]ammonium chloride], the “dissolution of the product in water” value ([2]; water) was “dissolved readily in water”.
